The NIST ThermoML archive (doi:10.1016/j.jct.2006.04.009)
± gives the expanded uncertainty stated by the source.

Conditions: Liquid

| vapor or sublimation pressure (343.15 K) | vapor or sublimation pressure (353.15 K) | vapor or sublimation pressure (363.15 K) | SMILES | vapor or sublimation pressure (313.15 K) | vapor or sublimation pressure (323.15 K) | vapor or sublimation pressure (333.15 K) |
| --- | --- | --- | --- | --- | --- | --- |
| 1817 ± 21 kPa | 2251 ± 26 kPa | 2738 ± 32 kPa | COC [dimethyl ether] | 887 ± 10 kPa | 1147 ± 13 kPa | 1451 ± 17 kPa |
|  |  |  | FC(F)C(F)(F)F [pentafluoroethane] | 2009 ± 24 kPa | 2537 ± 30 kPa | 3170 ± 37 kPa |
